How the values were obtained:
[1] = test system: ovariectomized estrogen primed gilt model; test: Dose response study of deslorelin in SAIB, LH release determined by RIA; assay type: in vivo, swine; details: single injection of 50 mcg deslorelin in SAIB
Description: A dose response study was performed using deslorelin in SAIB in an ovariectomized estrogen primed gilt model (Barb, et al. (1999) Proceed. Int'l. Symp. Control. Rel. Bioact. Mater., 26).

mature postpartum sows = test: Intravulvar deslorelin at estrus detection, estrus length, pregnancy rate and live piglets; assay type: in vivo, swine; details: 50 μg deslorelin acetate intravulvar at first estrus detection
Description: Sows were assigned randomly in blocks of two to either control or to be injected intravulvar with 50 mcg of deslorelin in SAIB at the time of estrus detection for sows first detected in estrus in the a.m. and 12 hours later for those first detected in estrus in the p.m. Treated animals were bred Al upon detected estrus and again 24 hours later if still in estrus. Controls received a saline injection on first detected estrus behavior estrus detection and were bred according to the farm's normal procedures. Saline sows bred at detected estrus consistent with farm sows. Deslorelin sows injected intravulvar with 1 ml (50 μg deslorelin acetate) at first estrus detection and AI, then AI again if in estrus the next day. Live piglet number 0.6>in Deslorelin versus Saline sows.

SMILES: CCNC(=O)[C@@H]1CCCN1C(=O)[C@H](CCCN=C(N)N)NC(=O)[C@H](CC(C)C)NC(=O)[C@@H](Cc1c[nH]c2ccccc12)NC(=O)[C@H](Cc1ccc(O)cc1)NC(=O)[C@H](CO)NC(=O)[C@H](Cc1c[nH]c2ccccc12)NC(=O)[C@H](Cc1cnc[nH]1)NC(=O)[C@@H]1CCC(=O)N1 [Deslorelin, deslorelin]
- Time by which LH returned to base level [1]: ≤ 18 h
- Live piglet number, greater in Deslorelin versus Saline sows (per litter) (mature postpartum sows): 0.6

Reference: patent US20070197435A1, “Process for the synchronization of ovulation for timed breeding without heat detection” (priority 2006, published 2007)
